How the values were obtained:
Type in all cases: cell-based
Settings in all cases: 72 hours
EFGR SVD (Ba/F3 cells) = target: T1, EFGR SVD (Ba/F3 cells) (Homo sapiens, UniProt P00533, INS770SVD); experiment: MTS assay, Ba/F3 cells, EFGR SVD
T1 construct: expressed in transfected cells; host or cells: Ba/F3
Procedure: (§1) The IC50 values of the compounds provided herein were measured against kinases in Ba/F3 cells.
(§2) Activities of representative compounds of the present application in inhibiting EGFR and HER2 were tested by MTS assay (abcam®) for Ba/F3 cells. For assays with Ba/F3 cells, 3000 cells were seeded for per well in 96-well plates and were exposed to the indicated compounds with a concentration of 3.3 to 10 μM for 72 hours.

HER2 WT (Ba/F3 cells) = target: T2, HER2 WT (Ba/F3 cells) (Homo sapiens, UniProt P04626); experiment: MTS assay, Ba/F3 cells, HER2 WT
T2 construct: expressed in transfected cells; host or cells: Ba/F3
Procedure: as §1, §2

EFGR ASV (Ba/F3 cells) = target: T3, EFGR ASV (Ba/F3 cells) (Homo sapiens, UniProt P00533, INS769ASV); experiment: MTS assay, Ba/F3 cells, EFGR ASV
T3 construct: expressed in transfected cells; host or cells: Ba/F3
Procedure: as §1, §2

EFGR WT (Ba/F3 cells) = target: T4, EFGR WT (Ba/F3 cells) (Homo sapiens, UniProt P00533); experiment: MTS assay, Ba/F3 cells, EFGR WT
T4 construct: expressed in transfected cells; host or cells: Ba/F3
Procedure: as §1, §2

HER2 GSP (Ba/F3 cells) = target: T5, HER2 GSP (Ba/F3 cells) (Homo sapiens, UniProt P04626, INS780GSP); experiment: MTS assay, Ba/F3 cells, HER2 GSP
T5 construct: expressed in transfected cells; host or cells: Ba/F3
Procedure: as §1, §2

HER2 YVMA (Ba/F3 cells) = target: T6, HER2 YVMA (Ba/F3 cells) (Homo sapiens, UniProt P04626, INS775YVMA); experiment: MTS assay, Ba/F3 cells, HER2 YVMA
T6 construct: expressed in transfected cells; host or cells: Ba/F3
Procedure: as §1, §2

T5 sequence (P04626 with tags, fused parts or gaps INS780GSP): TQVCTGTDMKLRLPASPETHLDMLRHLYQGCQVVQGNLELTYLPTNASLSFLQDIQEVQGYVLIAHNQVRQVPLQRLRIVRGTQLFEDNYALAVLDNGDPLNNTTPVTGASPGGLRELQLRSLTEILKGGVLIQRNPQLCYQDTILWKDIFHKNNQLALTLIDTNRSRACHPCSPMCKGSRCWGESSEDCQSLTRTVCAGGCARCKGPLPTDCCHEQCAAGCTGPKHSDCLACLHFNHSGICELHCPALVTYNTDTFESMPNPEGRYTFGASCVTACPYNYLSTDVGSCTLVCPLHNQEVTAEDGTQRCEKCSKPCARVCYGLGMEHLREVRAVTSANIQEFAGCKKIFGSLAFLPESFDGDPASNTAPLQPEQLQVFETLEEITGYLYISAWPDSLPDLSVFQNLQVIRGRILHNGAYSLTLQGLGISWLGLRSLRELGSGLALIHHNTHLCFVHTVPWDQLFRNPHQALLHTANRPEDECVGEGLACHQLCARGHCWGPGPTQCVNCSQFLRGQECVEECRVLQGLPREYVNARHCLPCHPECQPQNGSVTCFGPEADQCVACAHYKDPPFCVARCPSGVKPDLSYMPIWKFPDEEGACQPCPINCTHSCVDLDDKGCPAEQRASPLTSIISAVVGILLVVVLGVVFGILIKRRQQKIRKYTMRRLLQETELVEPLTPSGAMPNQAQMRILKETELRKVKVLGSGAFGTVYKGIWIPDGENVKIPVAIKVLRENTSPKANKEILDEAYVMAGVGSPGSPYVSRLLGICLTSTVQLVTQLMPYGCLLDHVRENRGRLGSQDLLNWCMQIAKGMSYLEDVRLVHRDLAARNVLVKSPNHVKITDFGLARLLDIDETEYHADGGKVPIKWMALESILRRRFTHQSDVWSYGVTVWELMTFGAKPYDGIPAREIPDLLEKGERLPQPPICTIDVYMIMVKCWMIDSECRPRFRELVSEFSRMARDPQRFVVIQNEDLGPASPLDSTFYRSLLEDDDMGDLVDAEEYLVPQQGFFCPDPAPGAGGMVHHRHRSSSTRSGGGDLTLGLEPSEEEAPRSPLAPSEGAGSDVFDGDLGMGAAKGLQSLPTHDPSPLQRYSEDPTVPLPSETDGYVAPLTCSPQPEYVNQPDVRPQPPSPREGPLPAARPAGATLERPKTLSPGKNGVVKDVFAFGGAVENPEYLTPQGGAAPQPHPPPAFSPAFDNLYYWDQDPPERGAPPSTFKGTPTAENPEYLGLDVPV
T6 sequence (P04626 with tags, fused parts or gaps INS775YVMA): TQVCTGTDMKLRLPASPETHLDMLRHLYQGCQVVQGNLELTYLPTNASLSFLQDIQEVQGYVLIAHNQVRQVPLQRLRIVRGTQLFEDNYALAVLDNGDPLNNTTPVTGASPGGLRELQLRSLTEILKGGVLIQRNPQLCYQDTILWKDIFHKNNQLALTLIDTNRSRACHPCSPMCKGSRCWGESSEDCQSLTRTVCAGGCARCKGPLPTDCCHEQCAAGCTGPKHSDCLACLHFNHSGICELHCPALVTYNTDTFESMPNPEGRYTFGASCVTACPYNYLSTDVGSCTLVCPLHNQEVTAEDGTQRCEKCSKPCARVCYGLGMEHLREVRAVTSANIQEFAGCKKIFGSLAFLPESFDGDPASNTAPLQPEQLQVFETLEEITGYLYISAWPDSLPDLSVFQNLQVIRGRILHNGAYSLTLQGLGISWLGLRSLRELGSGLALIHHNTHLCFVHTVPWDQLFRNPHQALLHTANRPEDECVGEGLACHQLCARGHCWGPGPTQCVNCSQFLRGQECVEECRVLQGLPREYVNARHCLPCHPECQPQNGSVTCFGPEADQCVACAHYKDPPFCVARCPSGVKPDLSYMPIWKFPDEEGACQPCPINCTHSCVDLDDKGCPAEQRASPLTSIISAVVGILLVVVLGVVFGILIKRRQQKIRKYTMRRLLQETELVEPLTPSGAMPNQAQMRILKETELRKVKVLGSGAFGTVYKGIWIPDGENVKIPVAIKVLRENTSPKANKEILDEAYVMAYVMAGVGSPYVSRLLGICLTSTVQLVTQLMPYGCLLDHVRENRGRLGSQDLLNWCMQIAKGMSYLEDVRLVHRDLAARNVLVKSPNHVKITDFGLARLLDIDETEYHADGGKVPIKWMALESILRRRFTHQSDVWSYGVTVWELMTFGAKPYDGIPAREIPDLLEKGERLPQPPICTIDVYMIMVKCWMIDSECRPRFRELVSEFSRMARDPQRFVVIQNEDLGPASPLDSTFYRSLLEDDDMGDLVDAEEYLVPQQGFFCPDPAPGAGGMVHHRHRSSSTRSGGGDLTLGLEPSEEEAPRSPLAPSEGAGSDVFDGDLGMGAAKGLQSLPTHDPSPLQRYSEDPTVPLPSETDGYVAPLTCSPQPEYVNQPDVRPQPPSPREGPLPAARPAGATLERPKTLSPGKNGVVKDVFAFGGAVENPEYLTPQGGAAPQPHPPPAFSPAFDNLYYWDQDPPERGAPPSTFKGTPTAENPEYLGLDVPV
T1 sequence (P00533 with tags, fused parts or gaps INS770SVD): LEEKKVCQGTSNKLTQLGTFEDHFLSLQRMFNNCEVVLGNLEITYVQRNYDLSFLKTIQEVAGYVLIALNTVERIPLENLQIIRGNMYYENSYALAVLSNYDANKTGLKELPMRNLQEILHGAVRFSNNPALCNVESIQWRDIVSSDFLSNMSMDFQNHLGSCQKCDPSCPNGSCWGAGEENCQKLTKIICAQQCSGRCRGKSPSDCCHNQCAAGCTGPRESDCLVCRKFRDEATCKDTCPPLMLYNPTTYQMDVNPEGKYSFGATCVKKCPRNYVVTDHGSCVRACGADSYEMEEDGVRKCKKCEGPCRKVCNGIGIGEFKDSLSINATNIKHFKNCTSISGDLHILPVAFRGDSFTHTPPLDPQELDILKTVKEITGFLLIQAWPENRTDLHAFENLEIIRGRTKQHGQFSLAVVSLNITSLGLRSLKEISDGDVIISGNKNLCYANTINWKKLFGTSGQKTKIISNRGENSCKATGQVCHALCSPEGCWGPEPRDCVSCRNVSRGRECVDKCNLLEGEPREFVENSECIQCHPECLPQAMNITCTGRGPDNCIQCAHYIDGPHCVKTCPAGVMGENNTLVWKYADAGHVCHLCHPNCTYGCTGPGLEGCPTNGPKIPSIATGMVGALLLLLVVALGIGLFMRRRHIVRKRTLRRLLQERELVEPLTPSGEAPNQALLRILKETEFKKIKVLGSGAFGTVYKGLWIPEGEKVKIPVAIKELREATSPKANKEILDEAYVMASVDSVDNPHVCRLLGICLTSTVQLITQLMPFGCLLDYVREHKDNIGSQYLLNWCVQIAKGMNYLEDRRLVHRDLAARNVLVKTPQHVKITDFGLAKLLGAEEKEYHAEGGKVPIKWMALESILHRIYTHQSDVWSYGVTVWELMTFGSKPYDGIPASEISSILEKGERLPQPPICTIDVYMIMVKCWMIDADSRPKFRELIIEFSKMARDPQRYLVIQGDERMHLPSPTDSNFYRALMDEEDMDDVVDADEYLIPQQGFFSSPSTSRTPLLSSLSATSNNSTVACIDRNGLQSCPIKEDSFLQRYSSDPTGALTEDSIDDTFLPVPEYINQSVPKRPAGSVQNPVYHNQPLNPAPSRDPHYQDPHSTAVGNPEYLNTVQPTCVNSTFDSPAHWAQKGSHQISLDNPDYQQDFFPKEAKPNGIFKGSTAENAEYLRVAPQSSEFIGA
T4 sequence (P00533 25-1210): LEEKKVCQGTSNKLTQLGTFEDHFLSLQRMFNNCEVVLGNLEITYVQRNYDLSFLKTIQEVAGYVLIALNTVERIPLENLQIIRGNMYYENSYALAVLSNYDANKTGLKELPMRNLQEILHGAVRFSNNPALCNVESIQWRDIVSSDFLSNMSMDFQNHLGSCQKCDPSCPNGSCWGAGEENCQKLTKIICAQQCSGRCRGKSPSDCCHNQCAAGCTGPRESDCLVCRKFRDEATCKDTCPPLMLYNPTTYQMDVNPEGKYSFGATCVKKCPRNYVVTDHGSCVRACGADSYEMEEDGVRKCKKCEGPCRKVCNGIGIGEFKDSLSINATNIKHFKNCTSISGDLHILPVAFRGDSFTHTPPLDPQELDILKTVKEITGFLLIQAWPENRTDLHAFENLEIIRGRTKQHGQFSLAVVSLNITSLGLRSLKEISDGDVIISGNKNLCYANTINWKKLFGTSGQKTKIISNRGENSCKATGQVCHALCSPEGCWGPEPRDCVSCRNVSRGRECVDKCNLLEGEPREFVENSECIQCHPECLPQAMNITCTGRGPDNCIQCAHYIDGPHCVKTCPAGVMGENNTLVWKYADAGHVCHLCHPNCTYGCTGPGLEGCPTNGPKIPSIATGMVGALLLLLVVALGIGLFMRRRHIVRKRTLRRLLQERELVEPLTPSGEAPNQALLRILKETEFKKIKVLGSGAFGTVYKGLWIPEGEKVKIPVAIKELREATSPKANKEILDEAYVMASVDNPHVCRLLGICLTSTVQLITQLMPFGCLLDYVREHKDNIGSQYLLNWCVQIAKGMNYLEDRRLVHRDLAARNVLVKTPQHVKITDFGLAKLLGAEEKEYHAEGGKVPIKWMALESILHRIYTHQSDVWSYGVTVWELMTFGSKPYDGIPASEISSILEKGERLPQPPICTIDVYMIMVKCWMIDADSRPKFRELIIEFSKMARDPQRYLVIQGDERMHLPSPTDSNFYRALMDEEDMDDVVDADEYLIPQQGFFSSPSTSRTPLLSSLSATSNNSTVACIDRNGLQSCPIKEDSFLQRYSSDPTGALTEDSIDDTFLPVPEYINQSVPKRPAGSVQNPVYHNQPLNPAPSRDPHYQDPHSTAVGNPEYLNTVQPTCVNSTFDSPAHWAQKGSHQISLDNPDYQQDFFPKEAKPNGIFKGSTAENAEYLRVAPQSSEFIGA

Row | Structure (SMILES) | IC50 (EFGR SVD (Ba/F3 cells)) [µM] | IC50 (HER2 WT (Ba/F3 cells)) [µM] | IC50 (EFGR ASV (Ba/F3 cells)) [µM] | IC50 (EFGR WT (Ba/F3 cells)) [µM] | IC50 (HER2 GSP (Ba/F3 cells)) [µM] | IC50 (HER2 YVMA (Ba/F3 cells)) [µM]
1 | C=CC(=O)N1CCC[C@@H](n2nc(C(=O)Nc3ccc(Oc4ccn5ncnc5c4)c(Cl)c3)c3c(N)ncnc32)C1 [Compound 3, (R)—N—(4-([1,2,4]triazolo[1,5-a]pyridin-7-yloxy)-3-chlorophenyl)-1-(1-acryloylpiperidin-3-yl)-4-amino-1H-pyrazolo[3,4-d]pyrimicline-3-carboxamide] | 2.61 | 0.0981 | 1.46 | 2.11 | 0.0786 | 0.0455
2 | C=CC(=O)N1CCC[C@@H](n2nc(C(=O)Nc3ccc(CN4CCn5ncnc5C4)c(C)c3)c3c(N)ncnc32)C1 [Compound 8] | 6.75 | 3.24 | 4.27 | 9.46 | 1.39 | 1.85
3 | C=CC(=O)N1CCC[C@@H](n2nc(C(=O)Nc3ccc(-n4ccnc4)c(C)c3)c3c(N)ncnc32)C1 [Compound 10] | – | 3.43 | – | – | – | 0.58
4 | C=CC(=O)N1CCC[C@@H](n2nc(C(=O)Nc3ccc(Cn4ccnc4)c(C)c3)c3c(N)ncnc32)C1 [Compound 4] | 6.04 | 3.85 | 4.53 | 7.16 | 1.44 | 3.16
5 | C=CC(=O)N1CCC[C@@H](n2nc(C(=O)Nc3ccc(CN4CCn5ccnc5C4)c(C)c3)c3c(N)ncnc32)C1 [Compound 9] | 5.59 | 2.63 | 1.98 | 7.92 | 1.29 | 1.38
6 | C=CC(=O)N1CCC[C@@H](n2nc(C(=O)Nc3ccc(Oc4ccn5ncnc5c4)c(C)c3C)c3c(N)ncnc32)C1 [Compound 1, (R)—N—(4-([1,2,4]triazolo[1,5-a]pyridin-7-yloxy)-2,3-dimethylphenyl)-1-(1-acryloylpiperidin-3-yl)-4-amino-1H-pyrazolo[3,4-d]pyrimidine-3-carboxamide] | 2.62 | 0.111 | 1.81 | 1.38 | 0.0567 | 0.0322
7 | C=CC(=O)N1CCC[C@@H](n2nc(C(=O)Nc3ccc(Cn4cncn4)c(C)c3)c3c(N)ncnc32)C1 [Compound 11] | – | 5.96 | – | > 10 | – | 1.33
8 | C=CC(=O)N1CCC[C@@H](n2nc(C(=O)Nc3cc(C)cc(CC(=O)N(C)C)c3)c3c(N)ncnc32)C1 [Compound 5] | 7.62 | 4.08 | 5.72 | 8.96 | 2.39 | 4.47
9 | C=CC(=O)N1CCC[C@@H](n2nc(C(=O)Nc3ccc(Oc4ccn5ncnc5c4)c(C)c3)c3c(N)ncnc32)C1 [Compound 2, (R)—N—(4-([1,2,4]triazolo[1,5-a]pyridin-7-yloxy)-3-methylphenyl)-1-(1-acryloylpiperidin-3-yl)-4-amino-1H-pyrazolo[3,4-d]pyrimidine-3-carboxamide] | 3.98 | 0.193 | 2.24 | 3.27 | 0.0958 | 0.0559
10 | C=CC(=O)N1CCC[C@@H](n2nc(C(=O)Nc3ccc(CC(=O)N(C)C)c(C)c3C)c3c(N)ncnc32)C1 [TAS0728, reference compound] | 4.48 | 0.164 | 3.82 | 0.921 | 0.0643 | 0.206
11 | C=CC(=O)N1CCC[C@@H](n2nc(C(=O)Nc3ccc(C(=O)N4CCn5ncnc5C4)c(C)c3)c3c(N)ncnc32)C1 [Compound 7] | 7.72 | 6.3 | 6.02 | 8.79 | 6.29 | 8.84
12 | C=CC(=O)N1CCC[C@@H](n2nc(C(=O)Nc3ccc(C(=O)N4CCn5ccnc5C4)c(C)c3)c3c(N)ncnc32)C1 [Compound 6] | 7.84 | 5.79 | 6.81 | 9.42 | 5.64 | 7.56
